{"source": "paper PMC4741971", "about": "“The dual topoisomerase inhibitor A35 preferentially and specially targets topoisomerase 2α by enhancing pre-strand and post-strand cleavage and inhibiting DNA religation” (Oncotarget, 2015)", "type_in_all_cases": "biochemical", "key": {"[1]": {"target": "T1, top2α (Homo sapiens, UniProt P11388)", "T1 construct": "gene TOP2A", "T1 sequence (P11388 whole entry)": "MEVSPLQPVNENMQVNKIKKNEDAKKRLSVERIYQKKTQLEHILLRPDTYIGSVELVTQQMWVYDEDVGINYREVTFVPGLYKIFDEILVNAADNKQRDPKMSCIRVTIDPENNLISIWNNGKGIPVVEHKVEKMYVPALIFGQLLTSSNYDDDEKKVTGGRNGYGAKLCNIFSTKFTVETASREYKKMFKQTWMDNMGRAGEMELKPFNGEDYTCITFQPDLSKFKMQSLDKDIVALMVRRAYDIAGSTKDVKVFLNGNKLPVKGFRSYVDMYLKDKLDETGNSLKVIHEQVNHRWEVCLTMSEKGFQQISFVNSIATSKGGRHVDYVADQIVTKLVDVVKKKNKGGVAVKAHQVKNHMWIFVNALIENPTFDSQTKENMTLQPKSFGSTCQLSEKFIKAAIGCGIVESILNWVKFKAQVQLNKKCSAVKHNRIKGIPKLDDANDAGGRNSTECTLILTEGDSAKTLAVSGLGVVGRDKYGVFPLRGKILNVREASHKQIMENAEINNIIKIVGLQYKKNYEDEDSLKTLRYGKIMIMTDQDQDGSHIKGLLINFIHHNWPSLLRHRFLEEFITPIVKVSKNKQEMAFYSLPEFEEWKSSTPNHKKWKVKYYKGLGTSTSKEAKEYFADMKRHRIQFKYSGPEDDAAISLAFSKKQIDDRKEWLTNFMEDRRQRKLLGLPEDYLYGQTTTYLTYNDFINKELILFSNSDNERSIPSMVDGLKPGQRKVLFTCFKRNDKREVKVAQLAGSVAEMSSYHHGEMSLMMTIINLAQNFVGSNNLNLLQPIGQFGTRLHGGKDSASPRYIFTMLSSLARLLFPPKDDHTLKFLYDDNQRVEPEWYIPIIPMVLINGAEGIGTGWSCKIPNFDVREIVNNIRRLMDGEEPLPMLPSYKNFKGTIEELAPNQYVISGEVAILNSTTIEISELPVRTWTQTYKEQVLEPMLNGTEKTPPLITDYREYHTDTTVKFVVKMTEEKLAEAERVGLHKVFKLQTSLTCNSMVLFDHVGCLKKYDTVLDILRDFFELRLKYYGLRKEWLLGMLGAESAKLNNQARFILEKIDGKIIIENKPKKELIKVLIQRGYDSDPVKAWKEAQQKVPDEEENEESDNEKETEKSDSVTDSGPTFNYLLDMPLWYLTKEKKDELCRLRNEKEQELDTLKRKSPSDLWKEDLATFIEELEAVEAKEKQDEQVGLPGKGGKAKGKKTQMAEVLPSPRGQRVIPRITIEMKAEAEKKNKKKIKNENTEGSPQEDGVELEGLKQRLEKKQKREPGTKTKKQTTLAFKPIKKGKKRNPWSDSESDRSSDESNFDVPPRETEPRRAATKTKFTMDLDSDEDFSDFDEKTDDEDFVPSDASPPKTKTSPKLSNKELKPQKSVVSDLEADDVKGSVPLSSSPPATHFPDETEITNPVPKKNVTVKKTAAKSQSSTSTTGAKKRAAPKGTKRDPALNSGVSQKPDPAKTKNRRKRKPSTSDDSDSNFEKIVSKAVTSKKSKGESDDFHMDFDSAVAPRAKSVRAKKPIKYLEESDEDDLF", "experiment": "top2α-mediated pBR322 DNA relaxation assay; also cleavage and religation assays and TARDIS in cells"}, "[2]": {"target": "T2, top1 (Homo sapiens, UniProt P11387)", "T2 sequence (P11387 2-765)": "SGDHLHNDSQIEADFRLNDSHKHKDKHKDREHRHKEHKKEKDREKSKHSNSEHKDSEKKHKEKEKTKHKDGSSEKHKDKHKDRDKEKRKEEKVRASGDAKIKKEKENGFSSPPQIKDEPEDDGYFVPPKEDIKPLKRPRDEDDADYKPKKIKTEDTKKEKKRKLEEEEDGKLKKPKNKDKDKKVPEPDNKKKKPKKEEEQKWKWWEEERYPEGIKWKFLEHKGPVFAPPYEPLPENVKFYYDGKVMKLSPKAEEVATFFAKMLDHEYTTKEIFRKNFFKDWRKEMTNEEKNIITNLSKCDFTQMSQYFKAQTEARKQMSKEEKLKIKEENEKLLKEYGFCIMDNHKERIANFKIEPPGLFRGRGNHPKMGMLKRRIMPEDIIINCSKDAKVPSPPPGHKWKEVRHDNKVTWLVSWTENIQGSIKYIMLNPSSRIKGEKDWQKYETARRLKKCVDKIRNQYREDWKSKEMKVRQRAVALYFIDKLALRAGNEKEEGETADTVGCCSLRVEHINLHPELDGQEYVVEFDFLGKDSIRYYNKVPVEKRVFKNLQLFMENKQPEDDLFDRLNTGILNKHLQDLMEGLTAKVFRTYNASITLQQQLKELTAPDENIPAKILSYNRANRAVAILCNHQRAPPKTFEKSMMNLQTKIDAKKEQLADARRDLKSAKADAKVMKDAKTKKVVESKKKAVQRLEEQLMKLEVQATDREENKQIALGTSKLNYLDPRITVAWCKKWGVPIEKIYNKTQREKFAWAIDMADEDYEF", "experiment": "top1-mediated DNA relaxation assay; also top1-mediated DNA cleavage and TARDIS in cells"}, "[3]": {"target": "T2, top1", "experiment": "top1-mediated cleavage of […]'-end-labeled 117-bp oligonucleotide"}, "[4]": {"target": "T1, top2α", "experiment": "top2α-mediated pBR322 DNA relaxation assay at […]"}, "[5]": {"target": "T3, top2β (Homo sapiens, UniProt Q02880)", "T3 construct": "gene TOP2B", "T3 sequence (Q02880 2-1626)": "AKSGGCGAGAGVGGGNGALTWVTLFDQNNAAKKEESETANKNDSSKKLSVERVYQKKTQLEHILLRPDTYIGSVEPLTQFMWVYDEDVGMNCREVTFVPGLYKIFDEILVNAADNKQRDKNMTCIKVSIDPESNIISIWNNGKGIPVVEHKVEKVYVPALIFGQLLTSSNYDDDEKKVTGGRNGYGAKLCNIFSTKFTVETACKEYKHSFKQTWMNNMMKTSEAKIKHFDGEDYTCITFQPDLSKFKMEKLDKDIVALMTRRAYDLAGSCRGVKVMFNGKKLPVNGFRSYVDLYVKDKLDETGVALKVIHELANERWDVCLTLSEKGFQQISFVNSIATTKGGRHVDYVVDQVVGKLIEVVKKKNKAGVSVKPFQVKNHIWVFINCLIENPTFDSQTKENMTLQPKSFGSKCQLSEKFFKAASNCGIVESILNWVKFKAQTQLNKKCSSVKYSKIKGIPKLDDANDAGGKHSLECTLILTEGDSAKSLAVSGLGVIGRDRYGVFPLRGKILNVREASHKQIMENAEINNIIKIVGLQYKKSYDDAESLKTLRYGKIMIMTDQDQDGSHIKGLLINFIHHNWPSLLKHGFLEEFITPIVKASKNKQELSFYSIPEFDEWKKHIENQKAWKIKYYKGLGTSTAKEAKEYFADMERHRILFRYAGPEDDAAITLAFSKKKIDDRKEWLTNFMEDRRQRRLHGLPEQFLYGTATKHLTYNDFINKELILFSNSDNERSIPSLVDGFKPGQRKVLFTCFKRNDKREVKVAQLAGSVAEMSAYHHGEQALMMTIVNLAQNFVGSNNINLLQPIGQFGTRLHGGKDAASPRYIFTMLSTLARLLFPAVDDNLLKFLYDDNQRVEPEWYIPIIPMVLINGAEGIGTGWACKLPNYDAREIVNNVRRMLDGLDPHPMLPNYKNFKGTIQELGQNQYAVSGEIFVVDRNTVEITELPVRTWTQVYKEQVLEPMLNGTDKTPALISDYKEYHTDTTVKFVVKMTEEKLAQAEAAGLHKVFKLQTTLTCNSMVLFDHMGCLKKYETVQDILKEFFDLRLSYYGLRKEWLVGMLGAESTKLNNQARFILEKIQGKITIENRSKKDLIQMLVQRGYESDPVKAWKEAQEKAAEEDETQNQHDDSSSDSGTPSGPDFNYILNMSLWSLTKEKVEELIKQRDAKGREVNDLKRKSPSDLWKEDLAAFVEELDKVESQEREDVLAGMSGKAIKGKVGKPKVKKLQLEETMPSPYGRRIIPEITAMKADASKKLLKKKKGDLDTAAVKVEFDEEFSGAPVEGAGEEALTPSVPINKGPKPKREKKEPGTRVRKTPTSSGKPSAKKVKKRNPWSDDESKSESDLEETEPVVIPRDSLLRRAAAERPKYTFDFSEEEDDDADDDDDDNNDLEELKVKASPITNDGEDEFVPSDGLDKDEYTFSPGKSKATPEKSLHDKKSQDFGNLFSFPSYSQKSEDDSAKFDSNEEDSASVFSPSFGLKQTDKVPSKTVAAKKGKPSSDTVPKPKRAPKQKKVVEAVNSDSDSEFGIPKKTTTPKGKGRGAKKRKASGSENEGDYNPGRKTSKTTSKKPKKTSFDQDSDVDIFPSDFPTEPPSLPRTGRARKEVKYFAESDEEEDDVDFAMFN", "experiment": "purified top2β-mediated pBR322 DNA cleavage assay"}}}
{"compound": "COc1ccc2c(c[n+]3c4c2ccc2c5c(cc(c24)CC3)OCO5)c1OC(=O)c1ccccc1", "note": "[A35]", "values": [{"measurement": "IC50", "setting": "[1]", "value": 560, "unit": "nM"}, {"measurement": "IC50", "setting": "[2]", "value": 22.1, "unit": "µM"}]}
{"compound": "CC[C@@]1(O)C(=O)OCc2c1cc1n(c2=O)Cc2cc3c(CN(C)C)c(O)ccc3nc2-1", "note": "[TPT, topotecan]", "values": [{"measurement": "top1-mediated cleavage of 3'-end-labeled 117-bp oligonucleotide", "setting": "[3]", "value": "the DNA breakage effect was weak and far less than the positive control TPT (topotecan)"}]}
{"compound": "COc1cc([C@@H]2c3cc4c(cc3[C@@H](O[C@@H]3O[C@@H]5CO[C@@H](C)O[C@H]5[C@H](O)[C@H]3O)[C@H]3COC(=O)[C@H]23)OCO4)cc(OC)c1O", "note": "[VP16, etoposide]", "values": [{"measurement": "top2α-mediated pBR322 DNA relaxation assay at 10 μM", "setting": "[4]", "value": "inhibitory activity of A35 on top top2α was much higher than that of etoposide (VP16)"}, {"measurement": "purified top2β-mediated pBR322 DNA cleavage assay", "setting": "[5]", "value": "A35 did not lead to DNA breakage mediated by top2β and the positive (VP16) control induced significant DNA breakage"}]}
